According to BindingDB's records for doi:10.1021/jm00102a008 (University of South Florida, 1993):

Target: T1, Adenosine receptor A1 (Cavia porcellus, UniProt P47745)
T1 sequence (P47745 whole entry): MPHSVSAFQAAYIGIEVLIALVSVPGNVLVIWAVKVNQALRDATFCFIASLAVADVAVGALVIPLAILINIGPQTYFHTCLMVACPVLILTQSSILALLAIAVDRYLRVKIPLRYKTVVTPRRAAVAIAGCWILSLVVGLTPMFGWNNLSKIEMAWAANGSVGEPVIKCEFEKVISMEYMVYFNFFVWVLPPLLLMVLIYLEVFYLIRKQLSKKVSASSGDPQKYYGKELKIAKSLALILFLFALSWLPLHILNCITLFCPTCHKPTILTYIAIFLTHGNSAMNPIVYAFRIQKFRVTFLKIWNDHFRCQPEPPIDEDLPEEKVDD
Assay: Tested for adenosine A1 receptor agonistic activity by determining concentration needed to prolong the stimulus-QRS interval by 50% of the maximum response

Structure (SMILES)	EC50 [µM]
Nc1nc(N=NCc2cccs2)nc2c1ncn2C1O[C@H](CO)[C@@H](O)[C@H]1O (some centres not stated)	41.7
Nc1nc(N=NCc2ccccc2Cl)nc2c1ncn2C1O[C@H](CO)[C@@H](O)[C@H]1O (some centres not stated)	49
Nc1nc(N=NCc2ccccc2F)nc2c1ncn2C1O[C@H](CO)[C@@H](O)[C@H]1O (some centres not stated)	41.7
Nc1nc(N=NCc2ccccn2)nc2c1ncn2C1O[C@H](CO)[C@@H](O)[C@H]1O (some centres not stated)	41.7

Other lines, results leading:

EC50 [µM]	Structure (SMILES)
83.2	Nc1nc(N=NCCc2ccccc2)nc2c1ncn2C1O[C@H](CO)[C@@H](O)[C@H]1O (some centres not stated)
49	Nc1nc(N=NCc2cccc(Cl)c2)nc2c1ncn2C1O[C@H](CO)[C@@H](O)[C@H]1O (some centres not stated)
83.2	Nc1nc(N=NCc2ccccc2)nc2c1ncn2C1O[C@H](CO)[C@@H](O)[C@H]1O (some centres not stated)
